Our source for the GI50 and TGI values is PubChem BioAssay (NCI).

SMILES strings stand for the structures.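 Cultured in 96-well plates, cells were exposed to test compound for 48 hours across five concentrations. The concentration for 50% growth inhibition is given as GI50. TGI marks complete inhibition of growth.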

What all share (experiment): inhibition of tumour cell growth, NCI panel, 48 h
Assay [1] deals with 786-0 renal.
The subject of assay [2] is COLO 205 colon.
The subject of assay [3] is EKVX NSCLC.
The subject of assay [4] is HOP-62 NSCLC.
Assay [5] has as its system K-562 leukemia.
The test system of assay [6] is MDA-MB-231 breast.
In assay [7] the test system is NCI-H23 lung.
For assay [8], the system named is PC-3 prostate.
Assay [9] deals with TK-10 renal.
The subject of assay [10] is UACC-62 melanoma.

In the case of `CCN1C/C(=C\c2cc(OC)c(OC)cc2OC)C(=O)/C(=C/c2cc(OC)c(OC)cc2OC)C1`, the GI50 is 2.87 µM in assay [1]; 2.31 µM in assay [2]; 3.5 µM in [3]; 3.45 µM in assay [4]; 3.58 µM in assay [5]; 3.66 µM in assay [6]. The GI50 in assay [7] was 3.43 µM; in assay [8] it was 4.25 µM; in assay [9], 3.88 µM; in [10], 2.13 µM. Moreover, the TGI in assay [1] was 8.09 µM; in assay [2], 5.43 µM; in assay [3] it was 30.6 µM; in assay [4], 10.4 µM; in assay [5], over 100 µM; in [6], 12 µM. Further, the TGI in assay [7] is 15.4 µM; in [8], over 100 µM; in assay [9] it was 11.3 µM; in assay [10], 4.28 µM.

In the case of `C=C1CC[C@@H]2[C@](C)(COC(C)=O)[C@H](OC(C)=O)CC[C@@]2(C)[C@@H]1CC(Nc1ccc(S(=O)(=O)NC(C)=O)cc1)C1=CCOC1=O` (some centres undefined), the GI50 in assay [1] is 2.44 µM; in [2] it was 1.81 µM; in assay [3] it was 10.8 µM; in assay [4], 10.8 µM; in assay [5], 2.58 µM; in assay [6] it was 3.32 µM. The GI50 is 5.52 µM in assay [7], 6.56 µM in [8], 8.01 µM in assay [9] and 2.59 µM in assay [10]. The TGI in [1] came to 7.98 µM; in assay [2], 4.82 µM; in [3], 20.9 µM; in assay [4], 21.1 µM; in assay [5], 17.6 µM; in assay [6] it was 11.6 µM. Further, the TGI in assay [7] stood at 17.4 µM; in assay [8], 16.8 µM; in assay [9] it was 16.9 µM; in assay [10] it was 10.8 µM.

Take `O=C(Cc1ccc(/C=C/C(=O)c2ncc[nH]2)cc1)Nc1ccc(F)cc1`: the GI50 is 1.37 µM in assay [1]; 4.54 µM in assay [2]; 7.46 µM in assay [3]; 2.64 µM in assay [4]; 1.3 µM in assay [5]; 1.83 µM in assay [6]. Besides, the GI50 in [7] was 1.91 µM; in assay [8], 2.8 µM; in [9] it was 7.89 µM; in assay [10], 5.92 µM. Moreover, the TGI in assay [1] was 5.81 µM; in [2], 10.8 µM; in [3], 32.9 µM; in assay [4] it was 12.7 µM; in [5] it was over 33.3 µM; in assay [6] it was 10.3 µM. Further, the TGI was found to be 9.54 µM in assay [7], 11.9 µM in assay [8], 18.4 µM in assay [9] and 22.6 µM in [10].

As to `CCOC(=O)c1cc(C(=O)c2cc(OC)c(OC)c(OC)c2)n2ncccc12`, the GI50 was 2.17 µM in assay [1]; 0.23 µM in [2]; 0.65 µM in [3]; 0.63 µM in assay [4]; 0.124 µM in assay [5]; 1.82 µM in [6]. Besides, the GI50 in [7] is 0.707 µM; in [8], 0.289 µM; in assay [9], 26.4 µM; in [10], 0.196 µM. The TGI in assay [1] was over 100 µM; in assay [2] it was 1.33 µM; in assay [3] it was over 100 µM; in [4], over 75.6 µM; in assay [5], over 100 µM; in [6], over 100 µM. Moreover, the TGI in assay [7], in assay [8], in [9] and in assay [10] was over 100 µM in each case.

In the case of `O=c1c2c(=NCCN3CCCC3)cc3c(=O)n(CCCN4CCOCC4)c(=O)c4c(-c5ccc(CN6CCCC6)cc5)cc(c(O)n1CCCN1CCOCC1)c2c4-3`, the GI50 was 0.0416 µM in [1]; 0.0641 µM in assay [2]; 0.0828 µM in assay [3]; 0.0255 µM in [4]; 0.0195 µM in assay [5]; 0.0397 µM in assay [6]. The GI50 in [7] is 0.0261 µM; in assay [8], 0.0278 µM; in assay [9] it was 0.0329 µM; in assay [10] it was 0.08 µM. Moreover, the TGI in assay [1] was 0.383 µM; in [2], 0.327 µM; in [3] it was 0.484 µM; in assay [4] it was 0.221 µM; in assay [5], over 100 µM; in assay [6] it was 0.384 µM. The TGI in [7] was determined as 0.158 µM; in assay [8] it was 0.168 µM; in assay [9], 0.84 µM; in assay [10] it was 0.239 µM.

For the compound `CCOC(=O)C1Cc2c(cc3c4c(cccc24)N(C(C)=O)C3)N(C)C1` (centres undefined), the TGI in [1] is over 100 µM; in assay [2] it was over 100 µM; in assay [3], over 100 µM; in assay [4], over 100 µM; in assay [5] it was over 100 µM; in assay [6], 5.71 µM. Also, the TGI in [7], in [8], in [9] and in assay [10] was over 100 µM throughout.

`CCN1C(=S)N(c2ccccc2)C2NC(=S)N(/N=C/C=C/c3ccccc3OC)C21` (centres undefined): the GI50 in [1] was 0.639 µM; in assay [2], 0.435 µM; in assay [3] it was 0.505 µM; in [4] it was 0.487 µM; in [5], 0.302 µM; in [6] it was 0.544 µM. The figures for the GI50 in [7], in assay [8] and in assay [10] were 0.658 µM, 0.398 µM and 0.421 µM, respectively. The TGI in assay [1] is over 100 µM; in assay [2], 2.16 µM; in assay [3], over 100 µM; in assay [4] it was over 100 µM; in assay [5], over 100 µM; in assay [6], over 27.4 µM. The TGI in assay [7], in [8], in [9] and in assay [10] was over 100 µM each time.

On to `c1cc(NNc2cccc(-c3nn[nH]n3)c2)cc(-c2nn[nH]n2)c1`, for which the TGI in assay [1], in assay [2], in [3], in assay [4], in assay [5] and in [6] was over 100 µM throughout. Further, the TGI in assay [7], in assay [8], in [9] and in assay [10] was over 100 µM each time.
